Results as given in patent publication US8703790B2, “Bis [O-(14-benzoylaconine-8-yl)] esters” (priority 2008, dated 2014).

Legend:
A549 (lung cancer) = test: In vitro cytotoxicity test (MTT) against human tumour cell line A549; assay type: cell-based; settings: A549, 24 h contact, 48 h re-growth
Experimental: (§1) Human tumour cell lines A549 (lung cancer), HCT-15 (colon cancer) and MCF-7 (breast cancer) have been obtained from the Developmental Therapeutics Program of the National Cancer Institute (Rockville, Md., USA). Cells were routinely grown with RPMI 1640 medium supplemented with 10% foetal calf serum, both obtained from Biochrom AG (Berlin, Germany). They were grown on Petri dishes (Nunc, Denmark) at 37° C. in a humidified atmosphere containing 5% CO2. Cells were replicated every 4 days and the medium changed once in-between.
(§2) Cytotoxicity has been evaluated on exponentially growing cells grown for 24 h in presence of the compounds to be tested. Briefly, 4000 cells were seeded in 96-well plates with 200 μL of complete medium; 24 hours later the medium was supplemented with a series of different concentrations of compounds and the contact maintained for 24 h. Compounds were dissolved in pure water and sterilised using polycarbonate membrane filters of 0.22 μm (Millipore, Molsheim, France). The cells were then allowed to re-grow for 48 hours; viable and metabolically active cells were quantitatively estimated by coloration with the MTT dye (1-(4,5-dimethylthyazol-2-yl)-3,5-diphenylformazan), Sigma-Aldrich Chimie, Saint-Quentin-Fallavier, France). The amount of substance allowing a 50% decrease in cell numbers is indicative of the cytotoxicity and represents the IC50 of compound.

MCF-7 (breast cancer) = test: In vitro cytotoxicity test (MTT) against human tumour cell line MCF-7; assay type: cell-based; settings: MCF-7, 24 h contact, 48 h re-growth
Experimental: as §1, §2

A549 = test: Cell cycle arrest, propidium iodide flow cytometry, A549; assay type: cell-based, human
Experimental: 10^6 Cells of A549, HCT-15 and MCF-7 cell lines have been seeded in Petri dishes with RPMI-1640 medium. 24 h later, SDD has been dissolved in water at a concentration of 20 μM and was directly added to the culture medium. Contact was maintained for 72 h. Then, cells have been detached by trypsinization, collected and rinsed by PBS and counted on hemocytometer. Cells were centrifuged for 5 min at 1500 rpm, then resuspended in a defined volume of PBS to obtain 2.5×10^6 cell/mL. 100 μL of cell suspension was digested to nuclei by trypsin for 10 min. Then, a solution containing trypsin inhibitor and RNAse was added to cell suspension and left for 10 min. Finally, cells were stained by propidium iodide and were analysed by flow-cytometry apparatus. Distribution of cells among the different phases of the cycle was determined by the procedure disclosed in: A detergent-trypsin method for preparation of nuclei for flow cytometric DNA analysis. Vindelov, L.; Christensen, I.; Nissen, N.; Cytometry (1983), 3, 323-327.
• G0G1: cell in the phase of GOG1 • G2M: cells in the phase of G2M • S: cells in the phase of DNA synthesis • Sub G1: apoptotic cells • SUP G2M: diploidic cells

female Swiss mouse = test: Acute systemic toxicity, preliminary test, intravenous; assay type: in vivo; settings: for death of the animal, time after the test item administration: 1 female Swiss mouse
Experimental: The study has been performed to assess the acute systemic toxicity of SDD in the mouse preliminary test.
The SDD was administered, by intravenous route: • in a first step to 1 female Swiss mouse at the single dose of 95 mg/kg b.w., • in a second step to 1 female Swiss mouse at the single dose of 60 mg/kg b.w., • in a third step to 1 female Swiss mouse at the single dose of 55 mg/kg b.w., and • in a fourth step to a group of 2 female Swiss mice at the single dose of 50 mg/kg b.w.

female Swiss mice = test: Acute systemic toxicity, main test, intravenous; assay type: in vivo, mouse
Experimental: The SDD was administered by intravenous route at the dose of 50 mg/kg body weight to a group of 5 female Swiss mice. The experimental protocol was established from the International standard NF EN ISO 10993-11 concerning biological evaluation of medical devices: “Tests for systemic toxicity”.

[1] = A549, SDD 20 μM, 72 h, percentage of total cell population
[2] = 50 mg/kg b.w. iv, 1 hour after administration
[3] = 50 mg/kg iv, 1 hour after administration

## CCN1C[C@]2(COC)[C@H](O)C[C@H](OC)[C@]34C1[C@H]([C@H](OC)[C@H]23)[C@]1(OC(=O)CCCCCCC(=O)O[C@]23[C@H]5[C@@H](OC(=O)c6ccccc6)[C@](O)(C[C@H]5[C@@]56C7[C@@H]2[C@H](OC)[C@@H]5[C@](COC)(CN7CC)[C@H](O)C[C@@H]6OC)[C@@H](OC)[C@@H]3O)[C@H]2[C@@H](OC(=O)c3ccccc3)[C@](O)(C[C@H]24)[C@@H](OC)[C@@H]1O [SDD, bis[O-(14-benzoylaconine-8-yl)]-suberate]
A549 (lung cancer)
  IC50: 18.7 µM
MCF-7 (breast cancer)
  IC50: 3.7 µM
A549; A549, 20 μM
  accumulation of cells in the G2M and S phases: significant accumulation
A549; A549, SDD 20 μM
  increase of number of cells arrested at S phase as compared to control: more than 100%
  increase of number of cells in the G2M phase as compared to control: 85%
A549; [1]
  ALL %: 100%
  G0G1 %: 53.04%
  G2M %: 16.42%
  S %: 25.49%
  SUP G2M % (diploidic cells): 2.09%
  SubG1 % (apoptotic cells): 3.34%
A549; A549, SDD concentration close to IC50
  cell distribution in the cell cycle: altered
A549; A549, SDD, survival cells
  Percentage of survival cells, G0G1 %: 55.86%
  Percentage of survival cells, G2M %: 17.29%
  Percentage of survival cells, S %: 26.84%
Female Swiss mouse; [2]
  decrease of the righting reflex (animals affected): 1/2
  decrease of the spontaneous activity (animals affected): 2/2
Female Swiss mouse; 50 mg/kg b.w. iv, first day to fourteenth day
  local finding at the tails: oedema at the level of the tails
Female Swiss mouse; 50 mg/kg b.w. single dose iv, 2 female Swiss mice
  mortality: No mortality
Female Swiss mouse; 50 mg/kg iv, end of the study
  macroscopical examination: did not reveal any treatment-related changes
Female Swiss mouse; 55 mg/kg b.w. single dose iv
  death of the animal, time after the test item administration: 24 h
Female Swiss mouse; 60 mg/kg b.w. single dose iv
  death of the animal, time after the test item administration: 3 h
Female Swiss mouse; 95 mg/kg b.w. single dose iv
  death of the animal, time after the test item administration: immediately
Female Swiss mouse; preliminary test, throughout the study
  body weight evolution: remained normal
Female Swiss mice; 50 mg/kg body weight iv, 5 female Swiss mice
  mortality: No mortality
Female Swiss mice; [3]
  decrease of the righting reflex (animals affected): 2/5
  decrease of the spontaneous activity (animals affected): 5/5
  eyes partly closed (animals affected): 2/5
Female Swiss mice; 50 mg/kg iv, end of the study
  macroscopical examination: necrosis at the level of the tail (animals affected): 3/5
Female Swiss mice; 50 mg/kg iv, first day to fourteenth day
  local finding at the tails: oedema at the level of the tails
Female Swiss mice; 50 mg/kg iv, throughout the study
  body weight evolution: remained normal
Female Swiss mice; mouse, intravenous route
  LD50: above 50 mg/kg of body weight
